Reference: ChEMBL document CHEMBL1156915, “Synthesis of new thienyl ring containing HIV-1 protease inhibitors: promising preliminary pharmacological evaluation against recombinant HIV-1 proteases” (J Med Chem, 2010)

Columns and labels:
[1] = target: Protease (Human immunodeficiency virus 1) (UniProt Q9YQ12); experiment: Inhibition of recombinant wild type HIV1 protease assessed as residual activity at 1 nM by fluorogenic substrate assay; values are per cent of control
[2] = tested on: Human immunodeficiency virus type 1 protease (Human immunodeficiency virus 1), Q72874 [V82A]; experiment: Inhibition of recombinant HIV1 protease V82A mutant assessed as residual activity at 1 nM by fluorogenic substrate assay; values are per cent of control
[3] = target: Protease (Human immunodeficiency virus 1) (UniProt Q9YQ12); experiment: Inhibition of recombinant HIV1 protease assessed as residual activity at 10 nM by fluorogenic substrate assay; values are per cent of control
[4] = tested on: Human immunodeficiency virus type 1 protease (Human immunodeficiency virus 1), Q72874 [V32I]; experiment: Inhibition of recombinant HIV1 protease V32I mutant assessed as residual activity at 10 nM by fluorogenic substrate assay; values are per cent of control
[5] = tested on: Human immunodeficiency virus type 1 protease (Human immunodeficiency virus 1), Q72874 [V32I]; experiment: Inhibition of recombinant HIV1 protease V32I mutant assessed as residual activity at 1 nM by fluorogenic substrate assay; values are per cent of control
Protease = Protease (Human immunodeficiency virus 1, UniProt Q9YQ12); experiment: Inhibition of recombinant wild type HIV1 protease assessed as hydrolysis of fluorogenic substrate
Sequence of Protease (Q9YQ12 whole entry): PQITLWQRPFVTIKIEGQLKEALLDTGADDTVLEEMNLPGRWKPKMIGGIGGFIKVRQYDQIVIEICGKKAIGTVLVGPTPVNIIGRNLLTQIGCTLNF

Sequence of Protease (Human immunodeficiency virus 1) (Q9YQ12 as listed by the source): as the sequence (Q9YQ12 whole entry) above

## Cc1c(O)cccc1C(=O)N[C@@H](Cc1cccs1)[C@H](O)CN1C[C@H]2CCCC[C@H]2C[C@H]1C(=O)NC(C)(C)C
[1]
  residual activity: 34%
[2]
  residual activity: 60%
[3]
  residual activity: 5%
[4]
  residual activity: 32%
[5]
  residual activity: 97%
Protease
  IC50: 2.9 nM

## CC(C)(C)NC(=O)[C@@H]1C[C@@H]2CCCC[C@@H]2CN1C[C@@H](O)[C@H](Cc1cc2ccccc2s1)NC(=O)C(CC(N)=O)NC(=O)c1ccc2ccccc2n1 (single isomer, unassigned)
[1]
  residual activity: 53%
[2]
  residual activity: 37%
Protease
  IC50: 0.6 nM

## Cc1c(O)cccc1C(=O)N[C@@H](c1cc(-c2ccccc2)cs1)[C@H](O)CN1C[C@H]2CCCC[C@H]2C[C@H]1C(=O)NC(C)(C)C
Protease
  IC50: 4000 nM

## CC(C)(C)NC(=O)[C@@H]1C[C@@H]2CCCC[C@@H]2CN1C[C@@H](O)[C@H](Cc1cccs1)NC(=O)C(CC(N)=O)NC(=O)c1ccc2ccccc2n1 (single isomer, unassigned)
Protease
  IC50: 21 nM

## Cc1c(O)cccc1C(=O)N[C@@H](CSc1ccccc1)[C@H](O)CN1C[C@H]2CCCC[C@H]2C[C@H]1C(=O)NC(C)(C)C
Protease
  IC50: 1.9 nM

## Cc1c(O)cccc1C(=O)N[C@@H](Cc1cc(-c2ccccc2)cs1)[C@H](O)CN1C[C@H]2CCCC[C@H]2C[C@H]1C(=O)NC(C)(C)C
Protease
  IC50: 6 nM

## CC(C)(C)NC(=O)[C@@H]1C[C@@H]2CCCC[C@@H]2CN1C[C@@H](O)[C@@H](NC(=O)[C@H](CC(N)=O)NC(=O)c1ccc2ccccc2n1)c1cc(-c2ccccc2)cs1
Protease
  IC50: 1500 nM

## CC(C)(C)NC(=O)[C@@H]1C[C@@H]2CCCC[C@@H]2CN1C[C@@H](O)[C@H](Cc1cc(-c2ccccc2)cs1)NC(=O)C(CC(N)=O)NC(=O)c1ccc2ccccc2n1 (single isomer, unassigned)
Protease
  IC50: 1.2 nM

## Cc1c(O)cccc1C(=O)N[C@@H](c1cccs1)[C@H](O)CN1C[C@H]2CCCC[C@H]2C[C@H]1C(=O)NC(C)(C)C
Protease
  IC50: 30000 nM

## Cc1c(O)cccc1C(=O)N[C@@H](Cc1cc2ccccc2s1)[C@H](O)CN1C[C@H]2CCCC[C@H]2C[C@H]1C(=O)NC(C)(C)C
Protease
  IC50: 15 nM

## CC(C)(C)NC(=O)[C@@H]1C[C@@H]2CCCC[C@@H]2CN1C[C@@H](O)[C@@H](NC(=O)[C@H](CC(N)=O)NC(=O)c1ccc2ccccc2n1)c1cccs1
Protease
  IC50: 5000 nM
